Measurements: patent US10100064B2, “Purine inhibitors of human phosphatidylinositol 3-kinase delta” (Merck Sharp & Dohme Corp., priority 2014, dated 2018)

What was measured:
PI3Kdelta = molecular target: T1, PI3Kdelta (Homo sapiens, UniProt O00329); test: HTRF PI3K biochemical assay, delta isoform; settings: 0.3 nM enzyme, 100 uM ATP, 5 uM PIP2, form screened (Neutral or TFA salt) given per compound
T1 construct: purchased Upstate; Millipore 14-604
Text: (§1) HTRF PI3K Biochemical Assay to Measure Intrinsic Potency of Compound Inhibitors
(§2) The PI3-Kinase biochemical assays were developed to measure the intrinsic potency and compound dependent inhibition of the alpha, beta, delta, and gamma PI3K isoform enzymes. This assay was developed and further optimized from a kit produced by Upstate (Millipore catalog #33-047) and has been configured for HTS and SAR screening. Briefly, this procedure exploits the exquisite specificity and high affinity binding of […] phosphatidyl(3,4,5)triphosphate (PIP3) to the GRP1 pleckstrin homology (PH) domain to generate the signal. In the absence of PIP3, an HTRF (Homogeneous Time-Resolved Fluorescence energy transfer) complex is formed consisting of europium (Eu)-labeled anti-GST, GSTtagged GRP1-PH domain, biotin-PIP3 and streptavidin conjugated APC. The native PIP3 produced by PI3-Kinase activity disrupts in a competitive manner the biotin-PIP3 from the PH domain, resulting in the loss of energy transfer (HTRF complex) and a decrease in the signal. The format of this assay is the same for all 4 isoforms of PI3K; the differences lie in the concentration of enzyme used to achieve robust assay window. The alpha, beta, and delta assays are run at 0.5, 1, and 0.3 nM enzymes and the gamma assay is run at 5 nM enzyme. The ATP concentration is 100 uM in the alpha, beta, and delta assays and 50 uM ATP in the gamma assay. All reactions are run at 5 uM PIP2.
(§3) Compounds are serially diluted (3-fold in 100% DMSO) across a 384-well polypropylene source plated from column 3 to column 12 and column 13 to column 22, to yield 10 concentration dose response for each test compound. Columns 1, 2, 23 and 24 contain either only DMSO or pharmacological known control inhibitor. Once titrations are made, 2.5 nL of the compounds on 384 well plates are reformatted and transferred by acoustic dispense in quadruplicates to a 1536 assay plate (Greiner) to assay across all four PI3K isoform enzymes.
(§4) The PI3-Kinase biochemical assay was optimized using the HTRF kit provided by Upstate (Millipore). The assay kit contains six reagents: 1) 4× Reaction Buffer; 2) native PIP2 (substrate); 3) Stop (EDTA); 4) Detection Mix A (Streptavidin-APC); 5) Detection Mix B (Eu-labeled Anti-GST plus GST-tagged PH-domain); 6) Detection Mix C. In addition, the following items were obtained or purchased; PI3Kinase (alpha 14-602, beta 14-603, gamma 14-558 and delta 14-604 from Upstate; Millipore), dithiothreitol (Sigma, D-5545), Adenosine-5′ triphosphate (InVitrogen, Cat#AS001A), native PIP3 (PI(3,4,5)P3, diC8, H^+, CELLSIGNALS, INC. Cat #907) DMSO (Sigma, 472301).
(§5) PI3Kinase Reaction Buffer is prepared by dilution the stock 1:4 with de-ionized water. DTT, PIP2 and Biotin-PIP3 were added to 1536 assay plate at a final concentration of 5 mM, […] 25 nM on the day of use. Enzyme addition and compound pre-incubation are initiated by the addition of 1.25 ul of PI3K (at twice its final concentration) in the 1× reaction buffer to all wells using a BioRaptor. Plates are incubated at room temperature for 15 minutes. Reactions are initiated by addition of 1.25 ul of 2× substrate solution (PIP2 and ATP in 1× reaction buffer) using BioRaptor. Plates are incubated in humidified chamber at room temperature for one hour. Reactions are quenched by addition of 0.625 uL of stop solution to all wells using the BioRaptor. The quenched reactions are then processed to detect product formation by adding 0.625 uL of Detection Solution to all wells using the BioRaptor (Detection mix C, Detection Mix A, and Detection Mix B combined together in an 18:1:1 ratio prepared 2 hours prior to use). Following a one hour incubation in the dark, the HTRF signal is measured on the Envision plate reader set for 330 nm excitation and dual emission detection at […]. […]

PI3Kalpha = molecular target: T2, PI3Kalpha (Homo sapiens, UniProt P42336); test: HTRF PI3K biochemical assay, alpha isoform (selectivity versus delta); settings: relative ratio PI3K-alpha IC50 value / PI3K-delta IC50 value
T2 construct: purchased Upstate; Millipore 14-602
T2 sequence (P42336 whole entry, canonical isoform): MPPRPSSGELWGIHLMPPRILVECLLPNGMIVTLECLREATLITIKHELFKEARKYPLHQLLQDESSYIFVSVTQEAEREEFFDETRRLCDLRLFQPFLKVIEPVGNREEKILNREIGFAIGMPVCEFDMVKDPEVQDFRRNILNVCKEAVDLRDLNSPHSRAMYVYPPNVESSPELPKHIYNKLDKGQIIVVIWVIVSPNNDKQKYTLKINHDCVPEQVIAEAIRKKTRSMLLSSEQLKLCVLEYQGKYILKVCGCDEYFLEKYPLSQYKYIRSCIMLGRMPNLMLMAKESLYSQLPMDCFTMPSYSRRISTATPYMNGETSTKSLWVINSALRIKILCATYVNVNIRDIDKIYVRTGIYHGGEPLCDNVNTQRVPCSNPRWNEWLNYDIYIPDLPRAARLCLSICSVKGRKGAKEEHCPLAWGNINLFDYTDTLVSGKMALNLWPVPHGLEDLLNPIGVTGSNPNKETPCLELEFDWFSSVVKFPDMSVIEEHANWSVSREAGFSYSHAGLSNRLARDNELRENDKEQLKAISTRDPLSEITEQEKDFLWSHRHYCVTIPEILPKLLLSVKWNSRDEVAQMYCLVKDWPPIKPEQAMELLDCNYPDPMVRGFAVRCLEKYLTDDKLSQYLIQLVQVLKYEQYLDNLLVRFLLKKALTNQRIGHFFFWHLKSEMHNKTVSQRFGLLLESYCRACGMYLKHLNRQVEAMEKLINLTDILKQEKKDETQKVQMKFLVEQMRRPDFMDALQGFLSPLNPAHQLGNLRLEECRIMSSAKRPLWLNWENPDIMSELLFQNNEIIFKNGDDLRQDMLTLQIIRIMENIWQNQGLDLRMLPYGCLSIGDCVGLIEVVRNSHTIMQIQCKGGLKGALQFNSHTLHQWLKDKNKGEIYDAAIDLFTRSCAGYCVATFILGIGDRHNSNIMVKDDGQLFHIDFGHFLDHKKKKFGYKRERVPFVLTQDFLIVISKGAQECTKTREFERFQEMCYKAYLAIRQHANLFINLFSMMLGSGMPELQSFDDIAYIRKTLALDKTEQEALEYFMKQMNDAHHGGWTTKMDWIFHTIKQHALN
T2 sequence (P27986 whole entry partner, canonical isoform): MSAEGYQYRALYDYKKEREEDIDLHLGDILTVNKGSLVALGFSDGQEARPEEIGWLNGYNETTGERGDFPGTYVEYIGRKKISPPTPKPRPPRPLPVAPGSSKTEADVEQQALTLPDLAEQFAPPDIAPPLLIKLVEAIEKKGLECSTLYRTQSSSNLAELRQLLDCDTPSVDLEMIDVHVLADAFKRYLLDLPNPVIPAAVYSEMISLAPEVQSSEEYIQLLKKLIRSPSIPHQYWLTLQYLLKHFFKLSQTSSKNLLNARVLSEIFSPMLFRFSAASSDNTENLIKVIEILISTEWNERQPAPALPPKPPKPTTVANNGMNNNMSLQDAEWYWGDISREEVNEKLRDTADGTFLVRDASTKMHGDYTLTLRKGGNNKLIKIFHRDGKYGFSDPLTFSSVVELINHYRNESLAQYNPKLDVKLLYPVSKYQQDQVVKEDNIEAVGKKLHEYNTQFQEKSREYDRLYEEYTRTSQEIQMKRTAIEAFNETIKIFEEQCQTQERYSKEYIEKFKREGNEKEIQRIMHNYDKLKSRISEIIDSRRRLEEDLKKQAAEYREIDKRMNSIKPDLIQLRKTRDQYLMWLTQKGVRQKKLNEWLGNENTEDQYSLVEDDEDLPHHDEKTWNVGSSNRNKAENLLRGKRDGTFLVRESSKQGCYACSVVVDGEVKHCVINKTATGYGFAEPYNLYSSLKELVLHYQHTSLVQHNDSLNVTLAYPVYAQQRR
Text: as §1, §2, §3, §4, §5

T1 sequence (O00329 whole entry, canonical isoform): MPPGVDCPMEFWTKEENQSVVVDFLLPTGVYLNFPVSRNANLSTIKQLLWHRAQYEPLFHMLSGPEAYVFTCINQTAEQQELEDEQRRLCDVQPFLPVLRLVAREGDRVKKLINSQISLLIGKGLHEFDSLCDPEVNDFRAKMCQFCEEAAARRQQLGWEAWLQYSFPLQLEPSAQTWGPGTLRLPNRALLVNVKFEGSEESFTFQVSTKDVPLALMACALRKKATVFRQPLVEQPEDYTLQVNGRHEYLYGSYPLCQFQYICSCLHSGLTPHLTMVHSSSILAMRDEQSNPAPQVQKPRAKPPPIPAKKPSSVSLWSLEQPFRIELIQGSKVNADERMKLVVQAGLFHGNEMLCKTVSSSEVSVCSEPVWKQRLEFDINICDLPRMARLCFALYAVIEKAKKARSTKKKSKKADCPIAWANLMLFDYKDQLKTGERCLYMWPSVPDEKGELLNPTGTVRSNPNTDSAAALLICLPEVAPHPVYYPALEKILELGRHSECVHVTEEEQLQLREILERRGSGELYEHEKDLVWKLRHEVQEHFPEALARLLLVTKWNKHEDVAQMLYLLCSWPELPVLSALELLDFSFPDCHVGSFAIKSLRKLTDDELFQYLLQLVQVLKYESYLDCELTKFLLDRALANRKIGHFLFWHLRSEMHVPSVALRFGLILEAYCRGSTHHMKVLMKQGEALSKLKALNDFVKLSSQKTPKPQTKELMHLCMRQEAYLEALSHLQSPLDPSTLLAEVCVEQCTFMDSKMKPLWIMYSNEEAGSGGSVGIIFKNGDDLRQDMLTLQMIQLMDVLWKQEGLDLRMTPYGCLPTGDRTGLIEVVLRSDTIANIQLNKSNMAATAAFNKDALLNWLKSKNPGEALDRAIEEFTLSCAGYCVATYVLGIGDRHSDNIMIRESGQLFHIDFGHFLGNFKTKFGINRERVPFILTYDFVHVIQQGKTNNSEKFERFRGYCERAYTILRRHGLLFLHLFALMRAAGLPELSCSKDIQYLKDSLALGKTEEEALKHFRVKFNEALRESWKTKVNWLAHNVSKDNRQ
T1 sequence (P27986 whole entry partner, canonical isoform): as the sequence (P27986 whole entry partner, canonical isoform) above

Structure (SMILES) | IC50 (PI3Kdelta) | Selectivity versus PI3Kalpha (PI3Kalpha)
CCn1c(-c2ccc(C(F)(F)F)nc2)nc2c(NC3CCc4nnc(C(C)C)n4C3)ncnc21 (single isomer, unassigned) [Compound 1-18, (S or R)-9-ethyl-N-[3-(1-methylethyl)-5,6,7,8-tetrahydro[1,2,4]triazolo[4,3-a]pyridin-6-yl]-8-[6-(trifluoromethyl)pyridin-3-yl]-9H-purin-6-amine] | < 1 nM | >10
CCn1c(-c2ccc(C(F)(F)F)nc2)nc2c(NC3CCc4nnc(C(C)C)n4C3)ncnc21 (single isomer, unassigned) [Compound 1-19, (S or R)-9-ethyl-N-[3-(1-methylethyl)-5,6,7,8-tetrahydro[1,2,4]triazolo[4,3-a]pyridin-6-yl]-8-(6-(trifluoromethyl)pyridin-3-yl]-9H-purin-6-amine] | 31 nM | >10
CCn1c(-c2ccc(C(F)(F)F)cc2)nc2c(NC3CCc4nnc(C(C)C)n4C3)ncnc21 (single isomer, unassigned) [Compound 1-20, (S or R)-9-ethyl-N-[(6S)-3-(1-methylethyl)-5,6,7,8-tetrahydro[1,2,4]triazolo[4,3-a]pyridin-6-yl]-8-[4-(trifluoromethyl)phenyl]-9H-purin-6-amine] | < 1 nM | >10
CCn1c(-c2cnc(OC)c(F)c2)nc2c(NC3CCc4nnc(C(C)C)n4C3)ncnc21 (single isomer, unassigned) [Compound 1-21, (S or R)-9-ethyl-8-(5-fluoro-6-methoxypyridin-3-yl)-N-[3-(1-methylethyl)-5,6,7,8-tetrahydro[1,2,4]triazolo[4,3-a]pyridin-6-yl]-9H-purin-6-amine] | < 1 nM | >10
CCn1c(-c2cnc(OC)c(Cl)c2)nc2c(NC3CCc4nnc(C(C)C)n4C3)ncnc21 (single isomer, unassigned) [Compound 1-22, (S or R)-8-(5-chloro-6-methoxypyridin-3-yl)-9-ethyl-N-[3-(1-methylethyl)-5,6,7,8-tetrahydro[1,2,4]triazolo[4,3-a]pyridin-6-yl]-9H-purin-6-amine] | 221 nM | >10
CCn1c(-c2cnn(-c3ccccc3)c2)nc2c(NC3CCc4nnc(C(C)C)n4C3)ncnc21 (single isomer, unassigned) [Compound 1-23, (S or R)-9-ethyl-N-[3-(1-mtthylethyl)-5,6,7,8-tetrahydro[1,2,4]triazolo[4,3-a]pyridin-6-yl]-8-(1-phenyl-1H-pyrazol-4-yl)-9H-purin-6-amine] | < 1 nM | >10
CCn1c(-c2ccc(C(F)F)cc2)nc2c(NC3CCc4nnc(C(C)C)n4C3)ncnc21 (single isomer, unassigned) [Compound 1-24, 8-[4-(difluoromethyl)phenyl]-9-ethyl-N-[(6(S or R))-3-(1-methylethyl)-5,6,7,8-tetrahydro[1,2,4]triazolo[4,3-a]pyridin-6-yl]-9H-purin-6-amine] | 3.5 nM | >10
CCn1c(-n2cnc(C(F)(F)F)c2)nc2c(NC3CCc4nnc(C(C)C)n4C3)ncnc21 (single isomer, unassigned) [Compound 1-25, 9-ethyl-N-[(6(S or R))-3-(1-methylethyl)-5,6,7,8-tetrahydro[1,2,4]triazolo[4,3-a]pyridin-6-yl]-8-[4-(trifluoromethyl)-1H-imidazol-1-yl]-9H-purin-6-amine] | 24 nM | >10
CCn1c(I)nc2c(NC3CCc4nnc(C5CC5)n4C3)ncnc21 (single isomer, unassigned) [Compound 1-26, (S or R)-N-[3-cyclopropyl-5,6,7,8-tetrahydro[1,2,4]triazolo[4,3-a]pyridin-6-yl]-9-ethyl-8-iodo-9H-purin-6-amine] | 12 nM | >10
